In the METLIN SMRT retention time set (Domingo-Almenara et al. 2019):

Experiment: gradient 5% acetonitrile 3 min, to 50% in 2 min, to 85% in 15 min, held 3 min, 100 µL/min
Details: column: Zorbax Extend-C18 2.1 x 50 mm; eluents: water / acetonitrile, 0.1% formic acid
Method in brief: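 In both positive and negative ionization mode, a quadrupole time-of-flight mass spectrometer coupled to HPLC analyzed pure standards run in mixtures of ~100 molecules. The Zorbax Extend-C18 column (2.1 × 50 mm, 1.8 μm) was operated at 100 μL/min with water and acetonitrile, each containing 0.1% formic acid. The dead volume was 40 μL and the dwell volume 900 μL. Retention time came from adduct peaks that were computationally picked and individually inspected by hand.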

Row | Compound | RP-LC retention time [s]
1 | COc1ccc(C(=O)NC2CCN(c3cc(-c4ccc(Cl)cc4)[nH]n3)C2)cc1OC (centres undefined) | 738
2 | COc1cc(NC(=O)CN2C(=O)C(C)(C)c3cc(C)ccc32)cc(OC)c1OC | 823
3 | CCNC(=O)N1CCc2nc(-c3ccc(F)cc3)ncc2C1 | 752
4 | Cc1cccc(S(=O)(=O)N2CCc3nc(-c4ccc(Cl)cc4)ncc3C2)c1 | 1210
5 | COc1cccc(NC(=O)N2CCc3cn(C)c4cccc(c34)C2)c1 | 771
6 | Cc1cccc(OCc2nc(-c3ccc4ncn(C(C)C)c4c3)no2)c1 | 839
7 | Cc1ccc2c(Nc3cc(F)cc(F)c3)c(C(=O)N3CCSCC3)cnc2n1 | 645
8 | CC1CCN(S(=O)(=O)c2cccn(CC(=O)NCCC3=CCCCC3)c2=O)CC1 | 878
9 | Cc1ccccc1NC(=O)NC1CCN(C(=O)C2CC2)C1 (centres undefined) | 660
10 | N#Cc1ccc(C(=O)N2CCCC2c2nc(-c3cccc(C(F)(F)F)c3)no2)c(F)c1 (centres undefined) | 1060
11 | COc1ccc(NC(=O)N2CCC3(CC2)NC(=O)c2ccccc2O3)c(OC)c1 | 728
12 | O=C(c1ccsc1)N1CCCn2cc(-c3ccccc3F)nc21 | 673
13 | CCOc1ccc(-c2noc(Cn3nc(-c4ccc(C)c(C)c4)ccc3=O)n2)cc1 | 1230
14 | CCc1noc(-c2ccnc(-n3ncc(C(=O)N4CCSCC4)c3C)c2)n1 | 904
15 | CCC(C)(C)NC(=O)c1ccc2c(c1)N(C(=O)NC)CC2 | 705
16 | Cn1c(=O)sc2cc(S(=O)(=O)N3CCC(C(=O)NC4CCCCCC4)CC3)ccc21 | 896
17 | CCS(=O)(=O)c1nc2ccc(NS(=O)(=O)c3ccc4c(c3)CCCC4)cc2s1 | 1010
18 | NS(=O)(=O)c1cccnc1Nc1cccc(Br)c1 | 889
19 | Cc1nc(-c2ccc3c(c2)CCN3C(=O)c2nccc3ccccc23)cs1 | 1040
20 | O=S(=O)(c1ccc2ccccc2c1)N1CCC(c2nc(-c3ccccn3)no2)CC1 | 952
21 | Cc1ccc(CNC(=O)c2c(C)sc3ccn(CC(C)C)c(=O)c23)cc1 | 999
22 | COC(=O)N1CCN(C(=O)Cc2ccc(Cl)c(Cl)c2)C(CN2CCCC2)C1 (centres undefined) | 688
23 | COc1ccc(NC(=O)c2cn3c(n2)CSCC3)c(C)c1 | 674
24 | COc1ccc(-c2cn3c(CC(=O)Nc4nccs4)csc3n2)cc1OC | 653
25 | FC(F)(F)c1ccc(C2CNCCO2)cc1 (centres undefined) | 570
26 | O=C(Cn1nc2c(Oc3cccc(F)c3)nccn2c1=O)Nc1ccccc1C(F)(F)F | 870

Row | Compound | RP-LC retention time [s]
27 | COc1ccc(-c2oc3ccc(OC)cc3c2C(=O)NCCN2CCOCC2)cc1 | 591
28 | CC(=O)N1CCCc2cc(S(=O)(=O)CCC(=O)Nc3cc(C)ccc3C)ccc21 | 758
29 | Cc1ccccc1CN1CC(=O)NCC12CCCC2 | 573
30 | Cc1ccc(S(=O)(=O)N2CCN(c3cc(C)nc(NC4CCCCC4)n3)CC2)cc1 | 811
31 | CC(C)N1CCN(C(=O)C2CC(=O)N(c3ccc4c(c3)CCN4C(=O)C3CC3)C2)CC1 (centres undefined) | 579
32 | O=C(Cc1ccc(F)cc1)NCCNc1cc(-n2cccn2)ncn1 | 652
33 | O=C(c1ccc(Cl)cc1)N1CCC(n2c(-c3ccoc3)nc3cccnc32)C1 (centres undefined) | 782
34 | CC1CCN(C(=O)c2nc3ccccn3c2-c2ccsc2)CC1 | 711
35 | CC1CCC(NC(=O)c2nnc(-c3ccc(S(=O)(=O)N4CCOCC4)cc3)o2)CC1 (centres undefined) | 917
36 | COc1ccc(NC(=O)N2CCC(c3nc(C(=O)N4CCCCC4)c(C)o3)CC2)cc1F | 784
37 | CCSc1ccccc1C(=O)NCc1ccsc1 | 786
38 | Cc1nc2nc(-c3ccccc3)nn2c(Sc2ccccc2N)c1C | 710
39 | Cc1cc(=O)n(CC(=O)Nc2ccccc2F)c(-c2ccc(F)cc2)n1 | 1040
40 | CC(C)NC(=O)N1CCN(Cc2nc3cc(C(C)(C)C)ccc3o2)CC1 | 712
41 | CCOC(=O)c1ccc2[nH]c(-c3ccc(S(=O)(=O)F)cc3)cc(=O)c2c1 | 858
42 | CCOC(=O)c1noc2ncnc(N(C)c3cccc(Cl)c3)c12 | 965
43 | COc1ccc(Cc2nc(-c3ccc4c(c3)nc(C)c(=O)n4C)no2)cc1OC | 894
44 | O=C(CN1C(=O)NC(c2ccc(Cl)cc2)C2=C1COC2=O)Nc1ccc(Br)cc1F (centres undefined) | 877
45 | CC1CCC(NC(=O)CN2C(=O)CCCc3cc(S(=O)(=O)N4CCC(C)CC4)ccc32)CC1 (centres undefined) | 1040
46 | Cc1ccc(N2CC(c3noc(-c4ccco4)n3)CC2=O)cc1 (centres undefined) | 877
47 | CCCOc1nn(CCC)cc1C(=O)N1CCC(C(=O)OC)CC1 | 736
48 | Cc1cc(=O)n(CC(=O)Nc2ccc(Br)cc2)c(N2CCOCC2)n1 | 712
49 | O=C(Nc1ccc2c(c1)OCCO2)Nc1ccc2nc3n(c(=O)c2c1)CCC3 | 654
50 | CC(=O)Nc1onc(C)c1-c1ccc(C)c(S(=O)(=O)Nc2ccc(C)cc2Cl)c1 | 864
51 | CC1=NS(=O)(=O)N(Cc2ccccc2)C=C1C(=O)OCc1nc(-c2ccc(F)cc2)no1 | 1140
52 | CCN1C(=O)c2cccnc2Sc2cc(NC(=O)c3ccc(Cl)cc3OC)ccc21 | 804

Continued, values first:

Row | RP-LC retention time [s] | Compound
53 | 694 | CNC(=O)C1CCCN(c2nc3ncn(CC(=O)Nc4cc(C)cc(C)c4)c(=O)c3s2)C1 (centres undefined)
54 | 669 | Cc1ccccc1-c1nc2cnccn2c1NCCC(=O)NCc1ccccc1
55 | 599 | O=C(Cc1ccccc1F)N1CCC(Nc2ncnc3c2CCC3)C1 (centres undefined)
56 | 694 | CCN(CC)C(=O)c1ccc(-c2nc3cc(NS(=O)(=O)c4ccccc4C)ccc3n2C)cc1
57 | 579 | COc1ccccc1C(=O)Nc1ccc2nc(N3CCN(CC(=O)N(C)C)CC3)cc(C(=O)O)c2c1
58 | 652 | CCc1nnc(C2CCN(S(=O)(=O)c3cccnc3)CC2)s1
59 | 601 | CCC(=O)N1CCN(c2nc3c(s2)CC(C(=O)NCc2cc(F)ccc2F)CC3)CC1 (centres undefined)
60 | 1110 | CCCc1noc(C2CCCCN2CC(=O)Nc2ccc(F)c(Cl)c2)n1 (centres undefined)
61 | 1120 | Cc1ccccc1NC(=O)Cn1nc(N2CCCC(C)C2)c2ccccc2c1=O (centres undefined)
62 | 654 | Cc1nc2cccnc2n1CC1CCCN(S(=O)(=O)Cc2ccccc2)C1 (centres undefined)
63 | 912 | COc1cccc(-c2noc(C3CCCN3C(=O)C3CCC3)n2)c1 (centres undefined)
64 | 930 | CCCN(CC1CCOC1)S(=O)(=O)Cc1ccccc1Cl (centres undefined)
65 | 867 | CCOC(=O)c1[nH]c(C)c(CCC(=O)N2CCC(C(=O)NCc3ccc(CC)cc3)CC2)c1C
66 | 820 | Cc1ccccc1CNC(=O)C1(C)CCCN(C(=O)NCC(C)C)C1 (centres undefined)
67 | 556 | CCN(CC)CCCNC(=O)C1CCCN(c2nnc(C)c3c(C)n(-c4ccccc4)nc23)C1 (centres undefined)
68 | 774 | Cn1c(=O)c(N2CCC(C(=O)NCc3ccco3)CC2)nc2ccccc21
69 | 598 | CCCCN(CC)CCNC(=O)C1CCN(c2ncnc3onc(C)c23)CC1
70 | 961 | CCc1noc(C2(NC(=O)/C=C/c3ccccc3)CCCCC2)n1
71 | 840 | O=C(NCc1ccc(F)cc1Cl)c1cn(-c2cc(N3CCOCC3)ncn2)cn1

Row | RP-LC retention time [s] | Compound
72 | 870 | Cc1ccc(N2CCC(NC(=O)Nc3ccccc3)C2=O)cc1C (centres undefined)
73 | 774 | CCOC(=O)c1noc2nc(C)nc(NCCCN3CCN(c4cc(C)ccc4C)CC3)c12
74 | 918 | CC(=O)N1c2ccc(S(=O)(=O)N3CCCCCC3)cc2CC1C(=O)NCCc1ccccc1 (centres undefined)
75 | 675 | CCCn1c(CCc2cccc(NS(=O)(=O)c3cnn(CC)c3)c2)nc2ccccc21
76 | 707 | Cc1nc2c(NC(=O)NCc3ccccc3)cccn2n1
77 | 1050 | CCC(C(=O)Nc1ccc(-c2nc(Cn3nc(C)cc3C)c(C)o2)cc1)c1ccccc1 (centres undefined)
78 | 751 | Cc1cc(NC(=O)C2CCCN(c3ncnc4c3nc3n4CCCCC3)C2)no1 (centres undefined)
79 | 1100 | CCCCc1ccc(NC(=O)Cn2nc3c(Sc4ccccc4)nccn3c2=O)cc1
80 | 566 | CCc1cc(N2CCN(C(=O)COc3ccc(F)cc3)CC2)nc2nncn12
81 | 1010 | COc1ccc(Cl)cc1NC(=O)NC1CCN(c2nc3ccccc3n(C)c2=O)CC1
82 | 715 | CCCNC(=O)C1CCN(c2ccc(SCC(=O)Nc3ccccc3C(=O)OCC)nn2)CC1
83 | 534 | CCn1cnnc1C1CCN(C(=O)c2ccc3c(c2)OCO3)CC1
84 | 736 | COc1ccccc1CNC(=O)C1CCN(C(=O)C2Sc3ccccc3NC2=O)CC1 (centres undefined)
85 | 797 | COc1ccc(OC)c(CNC(=O)C2CCN(c3nnc(-c4ccccc4)o3)CC2)c1
86 | 914 | CCOc1cc(=O)n2c(c1C(=O)OCc1ccccc1F)CCCCC2
87 | 669 | CCSc1nnc(NC(=O)CNC(=O)c2c[nH]c3ccccc23)s1
88 | 917 | CCN(CC)C(=O)c1ccc(Cn2nc(C)c(S(=O)(=O)N3CCC(C)CC3)c2C)cc1
89 | 918 | Cc1cc(C)cc(C(=O)NC(Cc2ccccc2)c2nnc(N3CCSCC3)o2)c1 (centres undefined)
